What was measured:
S. hermonthica seeds = experiment: Germination assay using S. hermonthica seeds; format: in vivo, Striga hermonthica; conditions: positive control, 10^−7 M (FIG. 2f)
Source text: The levels of strigolactones released to hydroponic culture media were estimated by germination stimulating activity using S. hermonthica seeds as described previously ^32 Strigolactones were identified and quantified on LC-MS/MS by comparing the retention time and full-scan spectrum with those of authentic standards. We synthesized deuterium-labeled epi-5DS (d1-epi-5DS) and used as an internal standard for quantitative analysis using LC-MS/MS. Germination assays using S. hermonthica were performed as described previously^32 For each bioassay, de-ionized water and (+)-strigol solution were used as negative and positive controls, respectively.

[1] = system: tiller bud outgrowth of rice
Method: Rice and Arabidopsis seeds were surface-sterilized and the seedlings were first grown aseptically on agar media. Plants were then grown hydroponically in growth chambers. For both rice and Arabidopsis, strigolactones were added to the hydroponic culture medium.
We used rice normal cultivars (Oryza sativa L. cv. Shiokari and cv. Nipponbare) and tillering dwarf mutants (FIG. 6) in this study. Rice seeds were washed in 70% ethanol for 30 sec, sterilized in 2.5% sodium hypochlorite solution for 15 min, rinsed with sterile water, and then imbibed at 28° C. in the dark for 2 days. Germinated seeds were transferred into hydroponic culture media^39 solidified with 0.6% agar (pH5.7) and cultured at 25° C. under fluorescence white light (150-200 μmol m^−2 s^−1) with a 16 h light/8 h dark photoperiod for 5 days. Each seedling was then transferred to a glass vial containing a sterilized hydroponic culture solution (13 ml), fixed with a piece of sponge at the root-shoot junction to the top of the vial, and grown under the same condition for additional 7 days (total 2 weeks). The hydroponic solution was supplemented every 3 days. For large-scale cultures, the 2-weeks-old seedlings were transferred into a 4-L porcelain pot containing the same hydroponic solution and grown under the same condition. After the transfer to pots, the solution was renewed weekly.
To further investigate the relationships between the D10/D17-derived branching inhibitor and strigolactones, we examined the effect of strigolactone treatment on rice d mutants.

D10 transcript = experiment: qRT-PCR of D10 transcript levels in rice roots; format: in vivo, Oryza sativa; conditions: roots of 8-day-old seedlings, 1 μM (+)-GR24 for 24 h (FIG. 3h)
Method: We performed quantitative reverse transcription-PCR (qRT-PCR) to determine D10 transcript levels, according to the method described before^38. Total RNA was extracted from roots using RNeasy Maxi kit (Qiagen). qRT-PCR was carried out to determine D10 transcript levels using gene specific primers and a Taq-Man probe (Table 1 as describe above). Ubiquitin expression was used as an internal standard.

[2] = system: axillary bud outgrowth of Arabidopsis; experiment: Axillary bud outgrowth (shoot branching) of Arabidopsis in hydroponic culture; format: in vivo, Arabidopsis thaliana; conditions: 5 μM in the hydroponic culture media
Method: Plants were then grown hydroponically in growth chambers. […] We used Arabidopsis thaliana ecotype Col-0 as the wild type and max mutants (FIG. 6). Seeds were sterilized in 1% sodium hypochlorite solution for 5 min, rinsed with sterile water, and stratified for one day at 4° C. […] Plants were then transferred to a glass pot containing 400 ml hydroponic solution^41 and grown under the same environmental condition for additional 15 days. The solution was renewed every 3 days. To measure germination stimulants, sterilized and stratified seeds were placed on glass beads (30 ml) wetted with 1/10 strength MS liquid media (10 ml) in a Petri dish (9 cm diameter) and grown for 14 days under the same conditions above. The culture media were collected and subjected to S. hermonthica germination assay.

SMILES	germination of S. hermonthica seeds (S. hermonthica seeds)	tiller bud outgrowth at 1 μM ([1]; 1 μM, 2-week-old d10-1 and d17-1 seedlings)	lowest concentration at which the inhibitory effect on tiller bud outgrowth was detectable ([1]; 2-week-old d10-1 and d17-1 seedlings) [nM]	inhibition of tiller bud outgrowth ([1]; 2-week-old d10-1 and d17-1 seedlings, compound applied to the media)	effect on d3-1 mutant plants ([1]; 6-week-old d3-1, 2 μM in the culture media)	branching phenotype and plant height of d10-1 mutant ([1]; 6-week-old d10-1, 2 μM in the culture media)	sensitivity of tiller bud outgrowth of the d3-1 mutant ([1]; d3-1 mutant seedlings (defective in probable signaling component))	morphological abnormalities in wild type seedlings after treatment ([1]; in vivo)	plant height of wild type seedlings ([1]; in vivo)	D10 transcript levels in d10-1 and wild type seedlings (D10 transcript)	sensitivity of branching of max2 mutants [2]	enhanced branching phenotype of max3 and max4 mutants ([2]; 30-day-old plants)
CC1=C[C@H](O/C=C2/C(=O)O[C@@H]3C4=C(C[C@H]23)[C@@H](O)CCC4(C)C)OC1=O [(+)-strigol, (+)-Strigol]	germination induced											
CC1=C[C@H](O/C=C2/C(=O)O[C@@H]3c4ccccc4C[C@H]23)OC1=O [GR24]		nearly fully inhibited	10	inhibited tiller bud outgrowth of 2-week-old d10-1 and d17-1 seedlings in a dose-dependent manner	no visible effect	complemented	insensitive	No morphological abnormalities were evident	did not change the plant height	decreased	insensitive	rescued

Reference: US8633356B2, “Method for controlling root parasitic plants” (Riken, priority 2008, dated 2014)
